Values of other authors as cited in patent US4713385A, “Alkoxy and dialkoxyalkyl esters of dihydrolysergic acid and related compounds useful as 5HT receptor antagonists” (Eli Lilly and Company, priority 1985, dated 1987).
pKd: −log10 of the molar value.

Tests used:
[1] = tested on: 5HT2 receptors; settings: effect mediated by 5HT2 receptors; in words
[2] = target: vascular alpha adrenergic receptors
[3] = target: vascular dopaminergic receptors
[4] = target: vascular histaminergic receptors
[5] = tested on: 5HT2 receptors; settings: Garbrecht compounds; in words

For CC(O)C(C)OC(=O)[C@@H]1C[C@@H]2c3cccc4c3c(cn4C(C)C)C[C@H]2N(C)C1 (stereo partly drawn) [LY53857, 1-isopropyl-6-methyl-8β-(1-methyl-2-hydroxy)propoxycarbonyl-5R-ergoline], the “antagonism of vascular contraction to serotonin” value [1] is given as “potent antagonist of vascular contraction to serotonin”, the pKd ([2]; Cohen et al. J.P.E.T., 227, 327 (1983), read-out: Kdissoc (vascular alpha adrenergic receptors)) is given as about 5.00 and the “affinity for vascular alpha adrenergic receptors” value ([2]; in words) is given as “minimal affinity”. The pKd ([3]; Cohen et al. J.P.E.T., 227, 327 (1983), read-out: Kdissoc (vascular dopaminergic receptors)) was about 5.00, the “affinity for vascular dopaminergic receptors” value ([3]; in words) was “minimal affinity” and the pKd ([4]; Cohen et al. J.P.E.T., 227, 327 (1983), read-out: Kdissoc (vascular histaminergic receptors)) was about 5.00. For the same molecule, the “affinity for vascular histaminergic receptors” value ([4]; in words) was “minimal affinity” and the “peripheral serotonin antagonist activity against 5HT2 receptors” value [5] was “most active peripheral serotonin antagonist”.
